The values that follow come from ChEMBL document CHEMBL3351620, “Structure-activity relationships and molecular modeling studies of novel arylpiperazinylalkyl 2-benzoxazolones and 2-benzothiazolones as 5-HT(7) and 5-HT(1A) receptor ligands” (Eur J Med Chem, 2014).

Assay [1] has as its target T1, 5-hydroxytryptamine receptor 1A (Homo sapiens, UniProt P08908).
T1 sequence (P08908 whole entry): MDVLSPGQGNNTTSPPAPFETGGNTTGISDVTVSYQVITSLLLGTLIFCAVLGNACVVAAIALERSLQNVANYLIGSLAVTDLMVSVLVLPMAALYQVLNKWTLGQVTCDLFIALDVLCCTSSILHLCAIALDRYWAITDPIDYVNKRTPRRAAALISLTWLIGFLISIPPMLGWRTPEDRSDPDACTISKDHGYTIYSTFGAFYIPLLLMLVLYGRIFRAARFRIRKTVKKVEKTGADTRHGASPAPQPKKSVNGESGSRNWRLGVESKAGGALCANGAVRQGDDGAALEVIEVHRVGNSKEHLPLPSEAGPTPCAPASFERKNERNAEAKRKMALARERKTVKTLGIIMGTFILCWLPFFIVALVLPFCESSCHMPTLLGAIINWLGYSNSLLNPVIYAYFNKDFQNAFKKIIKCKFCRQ
The assay is described as follows: Displacement of [3H]8-OH-DPAT from human 5-HT1A receptor transfected in […] cells after 30 mins by liquid scintillation spectrometry. Format: cell-based.

A further assay is filed under the species Homo sapiens. The assay is described as follows: Selectivity ratio of Ki for human 5HT1A receptor to Ki for human 5HT7 receptor.
For assay [2], the target named is T2, 5-hydroxytryptamine receptor 7 (Homo sapiens, UniProt P34969). The assay is described as follows: Displacement of [3H]5-HT from human 5HT7 receptor transfected in […] cells after 30 mins by liquid scintillation spectrometry. Type of assay: cell-based. On the technique in general: Displacement assays read how much labelled ligand stays bound in the presence of the test substance.

The target of assay [3] is T2, 5-hydroxytryptamine receptor 7. The assay is described as follows: Displacement of [3H]5-HT from human 5HT7 receptor transfected in […] cells ay 1 uM after 30 mins by liquid scintillation spectrometry. Format: cell-based.

pKi: −log10 of the molar value.

T2 sequence (P34969 whole entry): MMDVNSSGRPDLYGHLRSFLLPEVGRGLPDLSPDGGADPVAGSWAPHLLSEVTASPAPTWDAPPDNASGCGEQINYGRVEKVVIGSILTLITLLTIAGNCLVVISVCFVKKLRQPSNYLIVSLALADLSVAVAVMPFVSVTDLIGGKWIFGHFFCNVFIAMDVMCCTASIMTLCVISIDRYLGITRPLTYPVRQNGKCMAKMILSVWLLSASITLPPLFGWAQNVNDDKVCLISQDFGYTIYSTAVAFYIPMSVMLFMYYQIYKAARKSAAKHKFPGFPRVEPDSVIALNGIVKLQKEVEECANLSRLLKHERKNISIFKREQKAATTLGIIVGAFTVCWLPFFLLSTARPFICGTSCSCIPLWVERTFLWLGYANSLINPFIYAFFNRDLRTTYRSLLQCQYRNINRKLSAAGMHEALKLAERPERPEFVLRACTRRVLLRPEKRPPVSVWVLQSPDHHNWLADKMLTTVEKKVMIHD

What is called pKi is −log10 of the Ki, conventionally taken in molar units. Read a high pKi as a low Ki. On to `O=c1[nH]c2ccccc2n1CCCCCN1CCN(c2ccc(Cl)cc2)CC1`, for which the negative-log Ki (pKi) in assay [1] is 6.34.

As for `COc1ccccc1N1CCN(CCCCCn2c(=O)oc3ccccc32)CC1`, the pKi was 7.93 in assay [1] and 8.23 in assay [2]. Also, the Ratio Ki in the assay filed under Homo sapiens is 2.01.

Consider `O=c1sc2ccccc2n1CCCCCN1CCN(c2ccccc2)CC1`, for which the results for the pKi in assay [1] and in assay [2] were 7.02 and 7.70, respectively. In addition, the Ratio Ki in the assay listed under Homo sapiens came to 4.78.

On to `O=c1oc2ccccc2n1CCCCCN1CCN(c2ccccc2)CC1`, for which the negative logarithm of the Ki (pKi) in assay [1] was 7.72; in assay [2] it was 7.24. In addition, the Ratio Ki in the assay listed under Homo sapiens turned out to be 0.33.

In the case of `O=c1sc2ccccc2n1CCCCN1CCN(c2ccccc2)CC1`, the negative-log Ki (pKi) in assay [1] was 6.04; in assay [2], 7.44. Also, the Ratio Ki in the assay listed under Homo sapiens is 25.

`COc1ccccc1N1CCN(CCCn2c(=O)[nH]c3ccccc32)CC1`: the negative-log Ki (pKi) is 7.40 in assay [1] and 8.47 in assay [2].

As to `O=C1Cc2ccccc2N1CCCCN1CCN(c2cccc3ccccc23)CC1`, the values for the pKi in assay [1] and in assay [2] were 7.33 and 7.66, respectively.

As for `O=c1sc2ccccc2n1CCCCN1CCN(Cc2ccccc2)CC1`, the negative-log Ki (pKi) is 6.16 in assay [1] and 7.38 in assay [2]. Also, the Ratio Ki in the assay filed under Homo sapiens amounted to 16.6.

As for `COc1ccccc1N1CCN(CCCCCCn2c(=O)oc3ccccc32)CC1`, the negative logarithm of the Ki (pKi) is 8.89 in assay [1] and 7.93 in assay [2]. Further, the Ratio Ki in the assay listed under Homo sapiens amounted to 0.11.

On to `O=c1sc2ccccc2n1CCCCN1CCN(c2ccc(Cl)cc2)CC1`, for which the pKi in assay [1] is 7.08; in assay [2], 7.33. Also, the Ratio Ki in the assay filed under Homo sapiens was determined as 1.77.

Consider `COc1ccccc1N1CCN(CCCCCCn2c(=O)sc3ccccc32)CC1`, for which the figures for the negative-log Ki (pKi) in assay [1] and in assay [2] were 9.37 and 8.54, respectively. The Ratio Ki in the assay filed under Homo sapiens was 0.14.

Consider `Cc1ccccc1N1CCN(CCCCn2c(=O)sc3ccccc32)CC1`, for which the pKi in assay [1] is 7.98; in assay [2], 9.00. Besides, the Ratio Ki in the assay filed under Homo sapiens was determined as 10.5.

On to `COc1ccccc1N1CCN(CCCCCCCn2c(=O)sc3ccccc32)CC1`, for which the negative-log Ki (pKi) was 9.68 in assay [1] and 8.07 in assay [2]. The Ratio Ki in the assay filed under Homo sapiens came out at 0.02.

As for `O=c1sc2ccccc2n1CCCCCCCN1CCN(c2ccccc2)CC1`, the negative logarithm of the Ki (pKi) in assay [1] was 9.57; in assay [2], 8.12. For the same compound, the Ratio Ki in the assay filed under Homo sapiens came out at 0.03.

As to `COc1ccccc1N1CCN(CCCCCCCn2c(=O)oc3ccccc32)CC1`, the pKi in assay [1] is 9.72; in assay [2], 8.11. Besides, in the assay filed under Homo sapiens, the Ratio Ki is 0.02.

Consider `O=c1oc2ccccc2n1CCCCCCN1CCN(c2ccccc2)CC1`, for which the negative logarithm of the Ki (pKi) was 8.40 in assay [1] and 7.85 in assay [2]. Moreover, in the assay filed under Homo sapiens, the Ratio Ki was found to be 0.28.

Take `O=c1sc2ccccc2n1CCCCCCN1CCN(c2ccccc2)CC1`: the values for the pKi in assay [1] and in assay [2] were 9.04 and 8.53, respectively. The Ratio Ki in the assay listed under Homo sapiens was found to be 0.3.

`O=c1sc2ccccc2n1CCCCN1CCN(c2cccc(Cl)c2)CC1`: the negative logarithm of the Ki (pKi) was 8.21 in assay [1] and 8.76 in assay [2]. Also, the Ratio Ki in the assay listed under Homo sapiens was determined as 3.56.

On to `O=C1Nc2cc(F)ccc2C1CCCCN1CCN(c2cccc(Cl)c2)CC1` (stereo not drawn), for which the negative-log Ki (pKi) in assay [1] was 8.17; in assay [2], 6.93.

Take `COc1ccccc1N1CCN(CCCCn2c(=O)sc3ccccc32)CC1`: the results for the pKi in assay [1] and in assay [2] were 7.61 and 8.11, respectively. Moreover, the Ratio Ki in the assay listed under Homo sapiens is 3.16.

For the compound `COc1ccccc1N1CCN(CCCCn2c(=O)oc3ccccc32)CC1`, the values for the negative logarithm of the Ki (pKi) in assay [1] and in assay [2] were 7.72 and 7.99, respectively. For the same compound, the Ratio Ki in the assay listed under Homo sapiens came to 1.85.

`COc1ccccc1N1CCN(CCCCCn2c(=O)sc3ccccc32)CC1`: the pKi in assay [1] is 8.15; in assay [2], 8.29. In the assay filed under Homo sapiens, the Ratio Ki was found to be 1.38.

For orientation: inhibition means the relative decrease from the control value, in per cent. As to `O=C1c2cccc3cccc(c23)N1CCCCCN1CCN(c2ccccc2)CC1`, the inhibition in assay [3] was found to be 92%.

In the case of `COc1ccccc1N1CCN(CCCCC(=O)NC2CCCc3ccccc32)CC1` (stereo not drawn), the negative logarithm of the Ki (pKi) in assay [1] was 8.22; in assay [2], 8.05.

As to `O=c1sc2ccccc2n1CCCCN1CCc2ccccc2C1`, the negative logarithm of the Ki (pKi) is 7.13 in assay [1] and 8.55 in assay [2]. Further, the Ratio Ki in the assay filed under Homo sapiens was found to be 26.4.

With `O=c1oc2ccccc2n1CCCCCCCN1CCN(c2ccccc2)CC1`, the results for the negative-log Ki (pKi) in assay [1] and in assay [2] were 7.53 and 7.34, respectively. In the assay listed under Homo sapiens, the Ratio Ki is 0.65.

Consider `O=c1oc2ccccc2n1CCCCN1CCN(c2ccccc2)CC1`, for which the pKi in assay [1] was 7.04; in assay [2] it was 7.58. Besides, in the assay filed under Homo sapiens, the Ratio Ki is 3.43.
